These results are taken from patent US11485728B2, “Small molecules for the treatment of autoimmune diseases and cancer” (Athos Therapeutics, Inc., priority 2020, dated 2022).

One data set can be described thus: PAMPA permeability. To be noted: 5 hours at RT; for Papp at 5 h, 20 μM: PAMPA.
Data set [1] relates to CaCo-2 intestinal epithelial cells. The experiment in a line: Transepithelial resistance (TEER) of CaCo-2 cells exposed to TNFα and IFNγ. To be noted: CaCo-2; TNFα along with compounds. It counts as cell-based. The procedure: The intestinal epithelial barrier plays a central role in the pathophysiology of multiple chronic inflammatory and autoimmune diseases. Intestinal epithelial cells provide a physical barrier that interacts with immune cells and protects internal cavities from mucosal bacterial and antigen intrusion. Intestinal inflammation during IBD is associated with disruption of this barrier and cytokines like TNFα play important roles.
At confluence TEER is measured and TNFα along with compounds are added as described above. Compound-induced TEER is determined after correction with measurement prior to treatment.

Data set [2] relates to C57BL/6 mice with DSS colitis. The experiment in a line: DSS colitis in C57BL/6 mice. To be noted: 25 mg/kg PO daily; day twelve. It counts as in vivo. The procedure:
Dextran sodium sulfate (DSS) was added to the water 24 hrs after compound administration and weight was measured daily.
C57BL/6 mice (20-22 grams) were fed ad lib and assigned to 4 different groups (n=8/group). […] A control group received vehicle alone. After 24 hrs, mice were weighed and DSS was added to their drinking water. Mice were then treated with the test compounds and weighed daily and the DSS water was replenished every 72 hrs for 5 days, at which point, it was replaced by regular drinking water. Mice were sacrificed on day twelve and clinical scored was assessed. Intestinal tissue for and blood were also collected. Tissues were either flash frozen and kept in −80° C. for RNA and protein isolation or placed in 10% formalin solution for future histological analysis. Blood was spun at 5K rpm for 5 min and serum was collected and kept at −20° C. for multiplex cytokine analysis.
DSS colitis mouse model: C57BL/6 mice (20-22 grains) are fed ad lib and assigned to different groups (n=8/group). […] A control group receives vehicle alone. After 24 h, mice are weighed and DSS is added to their drinking water. Mice are then treated with the test compounds and weighed daily and the DSS water is replenished every 72 liars for 5 days, at which point, it is replaced by regular drinking water. Mice are sacrificed on day twelve and clinical scored was assessed. Intestinal tissue for and blood are also collected. Tissues are either flash frozen and kept in −80° C. for RNA and protein isolation or placed in 10% formalin solution for future histological analysis.

Where [3] appears, read: PAMPA permeability Classification, 20 μM donor.
Where [4] appears, read: Permeability, Pe, 20 μM donor in PBS/MeOH 90:10.

Bounds are passed on as bounds.

Regarding “4-(4-((1-cyclopropylpiperidin-4-yl)amino)-6-methoxy-7-(3-(pyrrolidin-1-yl)propoxy)quinazolin-2-yl)thiomorpholine 1,1-dioxide [Compound 405, reference compound]”, the “Permeability, Pe” value in the data set “PAMPA permeability” (20 μM donor in PBS/MeOH 90:10) worked out at 1.01e-07 cm/s.

`COc1cc2c(N[C@@H]3CCCOC3)nc(N3CCC(F)(F)CC3)nc2cc1OCCCN1CCCC1` [Compound 12, (R)-2-(4,4-difluoropiperidin-1-yl)-6-methoxy-7-(3-(pyrrolidin-1-yl)propoxy)-N-(tetrahydro-2H-pyran-3-yl)quinazolin-4-amine]: the TEER entry in data set [1] is given as “++”. Moreover, the “DSS Efficacy” value in data set [2] was “++”.

On to `COc1cc2c(NC3CCCOC3)nc(N3CCC(F)(F)CC3)nc2cc1OCCCN1CCCC1` (centres unmarked) [Compound 14, 2-(4,4-difluoropiperidin-1-yl)-6-methoxy-7-(3-(pyrrolidin-1-yl)propoxy)-N-(tetrahydro-2H-pyran-3-yl)quinazolin-4-amine], for which, in data set [1], the TEER result was “+”. Also, in data set [2], the “DSS Efficacy” value is recorded as “++”.

Take `COc1cc2c(NC3CCCS(=O)(=O)C3)nc(N3CCC(F)(F)CC3)nc2cc1OCCCN1CCCC1` (centres unmarked) [Compound 15, 3-((2-(4,4-difluoropiperidin-1-yl)-6-methoxy-7-(3-(pyrrolidin-1-yl)propoxy)quinazolin-4-yl)amino)tetrahydro-2H-thiopyran 1,1-dioxide]: the TEER entry in data set [1] is on record as “++”. Also, the “DSS Efficacy” value in data set [2] is listed as “+”.

As for `COc1cc2c(NCN3CCOCC3)nc(N3CCC(F)(F)CC3)nc2cc1OCCCN1CCCC1` [Compound 17, 2-(4,4-difluoropiperidin-1-yl)-6-methoxy-N-(morpholinomethyl)-7-(3-(pyrrolidin-1-yl)propoxy)quinazolin-4-amine], the TEER entry in data set [1] is recorded as “+”. Besides, in data set [2], the “DSS Efficacy” value is listed as “+”.

Turning to `COc1cc2c(NCCCOC(C)C)nc(N3CCC(F)(F)CC3)nc2cc1OCCCN1CCCC1` [Compound 21, 2-(4,4-difluoropiperidin-1-yl)-N-(3-isopropoxypropyl)-6-methoxy-7-(3-(pyrrolidin-1-yl)propoxy)quinazolin-4-amine], the TEER entry in data set [1] is on record as “−”. Moreover, in data set [2], the “DSS Efficacy” value was “+”.

On to `COc1cc2c(N[C@]3(N(C)C)C[C@@H](C)O[C@@H](C)C3)nc(N3CCC(F)(F)CC3)nc2cc1OCCCN1CCCC1` [Compound 25, (2R,4r,6S)—N-(2-(4,4-difluoropiperidin-1-yl)-6-methoxy-7-(3-(pyrrolidin-1-yl)propoxy)quinazolin-4-yl)-N′,N′,2,6-tetramethyltetrahydro-4H-pyran-4,4-diamine], for which the TEER result in data set [1] is recorded as “+”. Further, the “DSS Efficacy” value in data set [2] is listed as “+”.

On to `COc1cc2c(Nc3ccccn3)nc(N3CCC(F)(F)CC3)nc2cc1OCCCN1CCCC1` [Compound 34, 2-(4,4-difluoropiperidin-1-yl)-6-methoxy-N-(pyridin-2-yl)-7-(3-(pyrrolidin-1-yl)propoxy)quinazolin-4-amine], for which the TEER result in data set [1] is reported as “−”. In data set [2], the “DSS Efficacy” value is “−”.

Regarding `COc1cc2c(NCC#N)nc(N3CCC(F)(F)CC3)nc2cc1OCCCN1CCCC1` [Compound 49, 2-((2-(4,4-difluoropiperidin-1-yl)-6-methoxy-7-(3-(pyrrolidin-1-yl)propoxy)quinazolin-4-yl)amino)acetonitrile], the TEER entry in data set [1] is given as “−”. Besides, the “DSS Efficacy” value in data set [2] is reported as “−”.

In the case of `COc1cc2c(NCO)nc(N3CCC(F)(F)CC3)nc2cc1OCCCN1CCCC1` [Compound 61, ((2-(4,4-difluoropiperidin-1-yl)-6-methoxy-7-(3-(pyrrolidin-1-yl)propoxy)quinazolin-4-yl)amino)methanol], in data set [1], the TEER entry is “+”. Besides, the “DSS Efficacy” value in data set [2] is “+”.

On to `COc1cc2c(NC3CCS(=O)(=O)CC3)nc(N3CCC3)nc2cc1OCCCN1CCCC1` [Compound 81, 4-((2-(azetidin-1-yl)-6-methoxy-7-(3-(pyrrolidin-1-yl)propoxy)quinazolin-4-yl)amino)tetrahydro-2H-thiopyran 1,1-dioxide], for which the TEER entry in data set [1] is reported as “+”. Moreover, in data set [2], the “DSS Efficacy” value is recorded as “++”.

For `COc1cc2c(NC3CCS(=O)(=O)CC3)nc(C3CC3)nc2cc1OCCCN1CCCC1` [Compound 99, 4-((2-cyclopropyl-6-methoxy-7-(3-(pyrrolidin-1-yl)propoxy)quinazolin-4-yl)amino)tetrahydro-2H-thiopyran 1,1-dioxide], in data set [1], the TEER result is on record as “++”. Besides, in data set [2], the “DSS Efficacy” value was “++”.

For the molecule `COc1cc2c(NC3CCS(=O)(=O)CC3)nc(SC(C)C)nc2cc1OCCCN1CCCC1` [Compound 105], the TEER result in data set [1] is “+”. Moreover, the “DSS Efficacy” value in data set [2] is recorded as “+”.

Regarding `COc1cc2c(NC3CCCS(=O)(=O)C3)nc(N3CCC3)nc2cc1OCCCN(C)C` (centres unmarked) [Compound 137], the TEER result in data set [1] is reported as “+”. In addition, in data set [2], the “DSS Efficacy” value is on record as “+”.

Regarding `COc1cc2c(NC3CCOCC3)nc(N3CCCCC3)nc2cc1OCCCN1CCCC1` [Compound 173, 6-methoxy-2-(piperidin-1-yl)-7-(3-(pyrrolidin-1-yl)propoxy)-N-(tetrahydro-2H-pyran-4-yl)quinazolin-4-amine], in data set [1], the TEER result is “++”. Besides, in data set [2], the “DSS Efficacy” value is reported as “++”.

Regarding `COc1cc2c(NC3CCOCC3)nc(-c3ccc(C)o3)nc2cc1OCCCN1CCCC1` [Compound 180, 6-methoxy-2-(5-methylfuran-2-yl)-7-(3-(pyrrolidin-1-yl)propoxy)-N-(tetrahydro-2H-pyran-4-yl)quinazolin-4-amine], the TEER entry in data set [1] was “++”. Also, the “DSS Efficacy” value in data set [2] is listed as “++”.

Take `COc1cc2c(NCN3CCNCC3)nc(-c3cnc(C)s3)nc2cc1OCCCN1CCCC1` [Compound 213]: the TEER result in data set [1] is given as “+”. Moreover, the “DSS Efficacy” value in data set [2] is given as “+”.

On to `COc1cc2c(NC3CCOCC3)nc(N3CCCC3)nc2cc1C#CCN1CCCC1` [Compound 250], for which, in data set [1], the TEER result was “++”. The “DSS Efficacy” value in data set [2] is “++”.

For `COc1cc2c(NC3CCS(=O)(=O)CC3)nc(N3CCCC3)nc2cc1C#CCN1CCCC1` [Compound 254], the TEER entry in data set [1] is listed as “+”. In addition, the “DSS Efficacy” value in data set [2] is recorded as “+”.

One may read the Papp as the rate of passage across a membrane or cell layer, normalised by area and donor concentration. A low value points to slow passage. Regarding `COc1cc2c(NC3CCN(C(C)C)CC3)nc(N3CCCN(C)CC3)nc2cc1OCCCN1CCCCC1` [Compound 403, reference compound], the Papp at 5 h, 20 μM in the data set “PAMPA permeability” (setting [3]) is less than 0.055 ×10⁻⁶ cm/s; in the data set “PAMPA permeability” (setting [4]), 0.0096 ×10⁻⁶ cm/s.

Take `COc1cc2c(NC3CCN(C(C)C)CC3)nc(N3CCOCC3)nc2cc1OCCCN1CCCC1` [Compound 404, reference compound]: the Papp at 5 h, 20 μM in “PAMPA permeability” (setting [3]) was less than 0.055 ×10⁻⁶ cm/s; in “PAMPA permeability” (setting [4]), 0.00624 ×10⁻⁶ cm/s.
